Assay results from patent US4777172A, “Pyrimidylalkylthio benzimidale compounds, pharmaceutical compositions and use” (Smith Kline & French Laboratories Limited, priority 1986, dated 1988).
Structures can show the parent of a compound that is named as a salt.

What was measured:
[1] = system: H^+ -K^+ -ATPase; assay: K^+ Stimulated ATPase Activity; format: biochemical, pig
Procedure: A. K^+ Stimulated ATPase Activity
The effects of a single high concentration (1 mM) of a compound of structure (I) on H^+ -K^+ -ATPase were determined at pH 6.1 and pH 7.4. Preferred compounds of structure (I) were also tested over a range of concentrations to determine IC50 values at pH 6.1 and 7.4.
(i) Preparation of Lyophilised Gastric Vesicles (H^+ -K^+ -ATPase)
H^+ -K^+ -ATPase was prepared from the lyophilised gastric vesicles of pig fundic mucosa after the method of Saccomani et. al. (Biochem and Biophys. Acta., 465, 311, 1977).
(ii) K^+ Stimulated ATPase Activity
Compounds of structure (I) were pre-incubated with H^+ -K^+ -ATPase preparation 30 μg protein/ml from (i) in 10 mM Pipes/Tris buffer pH 6.1 and pH 7.4.
After 30 minutes at 37° the pre-incubation was diluted 5-fold with assay buffer to start the ATPase reaction. The conditions in the assay are 100 mM Pipes/Tris, 2 mM MgCl2, 10 mM KCl, 5 μg/ml nigericin, 2 mM Na2 ATP, pH 7.0. After an incubation at 37° for 15 minutes the inorganic phosphate released was determined by the method of Yoda & Hokin (Biochem. Biophys. Res. Com. 40, 880, 1970).
The effect of the same concentration of compound of structure (I) (pre-incubated with H^+ -K^+ -ATPase preparation at pH 7.4 as described above) on the recovery of 100 nmole of inorganic phosphate was also determined. […]

[2] = system: rabbit intact gastric glands (dibutyryl cAMP stimulated); assay: Aminopyrine (AP) accumulation in intact gastric glands; format: cell-based, New Zealand white rabbits; conditions: Oryctolagus cuniculus, 0.5 h; 300 μM dibutyryl cAMP, 30 minutes at 37° C, pH 7.4; amount required to inhibit stimulated aminopyrine accumulation by 50%
Procedure: B. Aminopyrine (AP) accumulation in intact gastric glands
The effect of a single concentration (100 μm) of a compound of structure (I) on dibutyryl cAMP stimulated AP […] in rabbit intact gastric glands was determined. Preferred compounds of structure (I) were tested over a range of concentrations to determine the IC50 value.
(i) Preparation of intact gastric glands.
Intact gastric glands were prepared from New Zealand white rabbits by the method of Berghindh et al. (Acta. Physio. Scand. 96, 150, 1976). Gastric mucosal scrapings were digested at 37° C. for 45-60 min. with Collagenase (100 U, Type 1, Sigma), and glands harvested by coarse filtration and sedimentation.
Test compound was incubated with glands and 300 μM dibutyryl cAMP for 30 minutes at 37° C. Incubating medium contained 132.5 mM NaCl, 5.4 mM KCl, 1.0 mM NaH2 PO4, 5.0 mM Na2 HPO4, 1.2 mM MgSO4, 1.0 mM CaCl2, 11.1 mM glucose, 2.0 mg/ml rabbit albumin, 10 μg/ml phenol red, approximately 0.3 uM[^14 C] […] (110 mCi/mmole), pH 7.4.
After incubation, glands were centrifuged and the supernatant removed. The glands were dried, weighed and dissolved in NaOH. The distribution of radioactivity between the supernatant and glands is then used to calculate the AP ratio after the method of Berglindh et al. (Acta. Physiol. Scand. 97, 401, 1976).
The IC50 value is the amount of compound required to inhibit the stimulated accumulation of aminopyrine by 50%.

[3] = system: histamine stimulated gastric acid secretion; assay: Rat: Lumen perfused stomach (histamine stimulated gastric acid secretion); format: in vivo
Excerpt: C. Rat: Lumen perfused stomach (histamine stimulated gastric acid secretion).
Using a modification of the procedure described by Ghosh and Schild (Br. J. Pharmacology, 13, 54, 1958), ED50 values after either intraduodenal (i.d) or intravenous (i.v) administration were obtained as follows: […]

[4] = i.d. (intraduodenal) administration

Row | SMILES | IC50 [2] [nM] | also measured
1 | COc1ccc2[nH]c([S+]([O-])Cc3nccc(N4CCCCC4)n3)nc2c1 (stereo not shown) [Example 3, 5-methoxy-2-(4-piperidino-2-pyrimidinylmethylsulphinyl)-(1H)-benzimidazoleCalcium Salt 2.5H2 O] | 16000 | inhibition of potassium stimulated H^+ -K^+ ATPase ([1]; pre-incubation pH 6.1, 30 minutes at 37°): found to inhibit; inhibition of potassium stimulated H^+ -K^+ ATPase ([1]; pre-incubation pH 7.4, 30 minutes at 37°): found to inhibit; ED50 ([3]; iv, i.v. administration): 1.4 µmol/kg
2 | COc1ccc2[nH]c([S+]([O-])Cc3ncnc(N(C)C)c3C)nc2c1 (stereo not shown) [Example 17, 5-methoxy-2-(5-methyl-6-dimethylamino-4-pyrimidinylmethylsulphinyl)-(1H)-benzimidazole] | 3330 | –
3 | COc1ccc2[nH]c([S+]([O-])Cc3ncnc(N4CCCCC4)c3C)nc2c1 (stereo not shown) [Example 11, 5-methoxy-2-(5-methyl-6-piperidino-4-pyrimidinylmethylsulphinyl)-(1H)-benzimidazole] | 6150 | –
4 | COc1ccc2[nH]c([S+]([O-])Cc3ncnc(N4CCOCC4)c3C)nc2c1 (stereo not shown) [Example 15, 5-methoxy-2-(5-methyl-6-morpholino-4-pyrimidinylmethylsulphinyl)-(1H)-benzimidazole] | 5000 | –

Molecules with a lower IC50 [2], results first:

Row | IC50 [2] [nM] | SMILES | also measured
5 | 2640 | COc1ccc2[nH]c([S+]([O-])Cc3cc(N4CCCCC4)ncn3)nc2c1 (stereo not shown) [Example 19, 5-methoxy-2-(6-piperidino-4-pyrimidinylmethylsulphinyl)-(1H)-benzimidazole] | –
6 | 2440 | COc1ccc2[nH]c([S+]([O-])Cc3nccc(N4CCCC4)n3)nc2c1 (stereo not shown) [Example 7, 5-methoxy-2-(4-pyrrolidino-2-pyrimidinylmethylsulphinyl)-(1H)-benzimidazole] | –
7 | 1200 | COc1ccc2[nH]c([S+]([O-])Cc3nccc(N(C)C)n3)nc2c1 (stereo not shown) [Example 9, 5-methoxy-2-(4-dimethylamino-2-pyrimidinylmethylsulphinyl)-(1H)-benzimidazole] | ED50 [3, 4]: 2.4 µmol/kg
8 | 320 | COc1ccc2[nH]c([S+]([O-])Cc3ncnc(N4CCCC4)c3C)nc2c1 (stereo not shown) [Example 13, 5-methoxy-2-(5-methyl-6-pyrrolidino-4-pyrimidinylmethylsulphinyl)-(1H)-benzimidazole] | ED50 [3, 4]: 2.8 µmol/kg
